For one molecule, thermodynamic stability results are on record in US7045661B2, “Crystalline forms of venlafaxine hydrochloride” (Ciba Specialty Chemicals Corporation, priority 2000, dated 2006).

SMILES strings stand for the structures.

A short description of this data set: Relative thermodynamic stability of crystalline forms. It is filed as physicochemical. Conditions: compared with the previous known Form C.

As for `COc1ccc(C(CN(C)C)C2(O)CCCCC2)cc1.Cl` (stereo not shown) [Form B, 1-[(2-dimethylamino)-1-(4-methoxyphenyl)ethyl]cyclohexanol hydrochloride], the thermodynamic stability entry is recorded as “thermodynamically more stable than the previous known Form C”.
